Data on one compound can be found in patent publication US20230381196A1, “COMPOSITIONS COMPRISING BISFLUOROALKYL-1,4-BENZODIAZEPINONE COMPOUNDS FOR TREATING ADENOID CYSTIC CARCINOMA” (AYALA PHARMACEUTICALS INC., priority 2020, published 2023).

The test system of one data set is ACC83 cells. The data set can be described thus: Wound healing (migration) assay. The settings on record: 10 nM for 14 days, vs untreated cells. In kind it is cell-based, Human. The method, then:
FIG. 11A. Effect of Compound (1) monotherapy on cell migration in ACC83 cell line. ACC83 cells were treated with either 10 nM Compound (1) or DMSO (control) for 14 days. Cells were then plated in wells containing inserts and allowed to attach for 12 h. The inserts were removed, and the gap was photographed at 0 h and at 12 h (left panel).
Methods: A wound healing assay was carried out to assess migration potential of ACC83 and ACC112 cells. Cells were cultured in triplicate in 6-well plates (1×10^6 cells per well) containing culture inserts (Ibidi). On reaching 90% confluence, the inserts were removed, and cells were cultured for 12 hr. Gap area in individual wells was determined using ImageJ. The gap area percentage was calculated as the gap area at 12 hr relative to the gap area at 0 hr. A Boyden chamber assay was carried out to assess the invasion potential of ACC83 and ACC112 cells. Cells were cultured (1×10^4 cells per well) in triplicate into the upper chamber of Matrigel-coated transwell chambers (8-μm pore size, Corning) in serum-free medium, while 10% FBS medium was added to the bottom chamber to stimulate invasion. After 24 h incubation, the cells in the upper chamber were carefully removed with cotton swab, and the cells that had invaded through Matrigel were stained with 1DiffQuick, photographed at 40× magnification and quantified across three random fields.

A further data set concerns T-ALL tumors. The data set can be described thus: Tumor growth in mice harboring T-ALL tumors. The data set is classed as in vivo. The method, then:
FIG. 7A. Inhibition of tumor growth with 6 mg/kg Compound (1). Mice harboring T-ALL tumors were administered Compound (1) 6 mg/kg, QDx3 per week, Days 15-17; 22-24; 29-31, Nirogacestat 150mg/kg, QD Days 15-28, or vehicle using the protocol described, and tumor volume was measured 15-60 days post-baseline.
FIG. 7B. Inhibition of tumor growth with 4 mg/kg Compound (1). […]

A short description of data set [1]: Phase 2 trial: Compound (1) plasma concentration / PK. In kind it is in vivo, human. The protocol: FIGS. 5A-5B. Compound (1) plasma concentration over time since last dose^a The concentration of Compound (1) in plasma in subjects on days 0-7 after being administered 4 mg Compound (1) on week 1 (FIG. 5A) and on week 4 (FIG. 5B). Dots represent individual subject data; lines represent geometric means. Orange lines: Phase 2 data. Green lines: Phase 1 data.
FIG. 6. Effect of CYP inhibitors and substrates on Compound (1) PK^b. Effect of concomitant administration of CYP inhibitors or substrates on the PK of Compound (1) in subjects administered 4 mg Compound (1) once per week. Box plots represent median, 25/75 percentile, and 2/98 percentile; groups with >1 subject represented are shown. 2C19; 2D6 (weak), 1A2, 3A4, 2D6
Starting on Cycle 1, Day 1, eligible subjects enrolled in the study received Compound (1), 4 mg intravenously (IV) weekly (qwk), on Days 1, 8, 15, and 22 of each 28-day cycle until disease progression, unacceptable toxicity, or consent withdrawal. Paired tumor biopsies were collected at screening (fresh or archival within 5 years) and upon confirmation of disease progression (provided medically safe and not contraindicated). Samples were sent to a central vendor for NGS analysis. Formalin-fixed paraffin embedded (FFPE) slides were evaluated by IHC for NICDI stain.

Take `CN1C(=O)[C@@H](NC(=O)[C@H](CCC(F)(F)F)[C@H](CCC(F)(F)F)C(N)=O)N=C(c2ccccc2)c2ccccc21` [Compound (1), (2R,3S)—N-((3S)-1-methyl-2-oxo-5-phenyl-2,3-dihydro-1H-1,4-benzodiazepin-3-yl)-2,3-bi s(3,3,3-trifluoropropyl)succinamide]: the “cell migration (relative gap width at 12 h)” value in the data set with ACC83 cells is “significantly inhibited the migration”. For the same compound, the tumor volume entry in the data set on T-ALL tumors (4 mg/kg QDx3 per week, Days 18-33, compared to vehicle and Crenigacestat 6 mg/kg QD Days 18-33) is “inhibited the increase in tumor volume”; in the data set on T-ALL tumors (6 mg/kg QDx3 per week, Days 15-17, 22-24, 29-31, compared to vehicle and Nirogacestat 150 mg/kg QD Days 15-28) it was “inhibited the increase in tumor volume”. In addition, the “PK of plasma concentration compared with Phase 1 study” value in data set [1] (4 mg dose, week 1 and week 4) is on record as “equivalent to the PK from the Phase 1 study”. The “effect of inhibitors or substrates of different CYPs on the PK” value in data set [1] (4 mg once per week, concomitant CYP inhibitors or substrates) is “no significant effect”.
